Reference: patent US20140142035A1, “METHODS AND COMPOSITIONS FOR MODULATING INSULIN REGULATION” (The Washington University, priority 2010, published 2014)
“Also recorded” adds a separate entry of the source. Where no end group is shown, it is not given here.

Columns and labels:
primary mouse islets = assay: Insulin release assay (static incubation) with primary mouse islets; type: cell-based; settings: 100 nM peptide, 60 min, RIA
Protocol: (§1) Primary mouse islets (panel A) or MIN6 cells (panel B) were incubated for 1-h in insulin assay buffer (KRB) containing 2.5 mM glucose. Islets or cells were then switched to KRB containing the indicated concentration of glucose with or without 100 nM GIP, GLP-1, Xenin-8, or Xenin-25. Sixty-minutes later, assay buffer was collected and the amount of insulin released determined by RIA.
Primary mouse islets were incubated for 1-h in insulin assay buffer (KRB) containing 2.5 mM glucose. Islets were then switched to KRB containing the indicated concentration of glucose with or without 100 nM Xenin-8. Sixty-minutes later, assay buffer was collected and the amount of insulin released determined by RIA.
(§2) Insulin release assays (static incubations) were conducted at the indicated concentration of glucose with islets isolated from WT C57BL/6J mice (Panel A; 5 islets per sample; 6 samples per condition) or Min6 cells (Panels B, C; 4 wells per condition). 100 nM GIP, GLP-1, or Xenin-25 (Xen) was added to some samples in Panels A, B. Peptides were added at the indicated concentrations in Panels C.
Experiments were conducted to determine whether Xenin-25 acts directly on pancreatic islet beta cells (FIG. 23). Islets were isolated from wild type C57BL/6J mice and then subjected to insulin release assays (FIG. 23A) in the presence of different concentrations of glucose. […]

MIN6 cells = assay: Insulin release assay with MIN6 cells; type: cell-based; settings: for glucose-stimulated insulin release: MIN6 cells, 100 nM peptide, 60 min
Protocol: as §1, §2
Next, studies were performed with MIN6 cells, a well-characterized, glucose-responsive, insulin-producing cell line. First, insulin release assays were conducted in the presence of peptides. […] Second, Min6 cells were treated with GLP-1, GIP, or Xenin-25 and Western blots conducted to determine whether the Xenin-25 increased MAPK signaling. […] Finally, insulin release assays were conducted in the presence of GIP plus Xenin-25.

[1] = test system: MAPK signaling in Min6 Cells; assay: Western blot for phosphorylated (active) MAPK in Min6 cells; type: cell-based; settings: 10 minutes, 7.5 mM glucose, 100 nM peptide
WT mice = assay: Plasma insulin 5 minutes after i.p. glucose with peptides, wild type mice; type: in vivo, mouse
Protocol: (§3) WT and DT mice were fasted for 16-h (Fast). As indicated, some mice were then administered an intraperitoneal injection of glucose (1 g/kg) with vehicle alone (BSA), GIP alone, Xenin-25 alone (Xen) or GIP plus Xenin-25 (G+X). […] Five minutes after injection of glucose, blood was collected and plasma prepared for insulin assays.
(§4) WT and DT mice were fasted for 16-h (Fast). As indicated, some mice were then administered an intraperitoneal injection of glucose (1 g/kg) with vehicle alone (BSA), GIP alone, Xenin-25 alone (Xen) or GIP plus Xenin-25 (G+X). Five minutes later, blood was collected. Plasma was then prepared and assayed for insulin.
(§5) Activation of parasympathetic neurons that innervate the pancreas can increase glucose-mediated insulin release in vivo. […] Wild type and GIP/DT mice were fasted overnight and then administered glucose in combination with GIP plus Xenin-25 by intraperitoneal injection. […] Blood was collected and plasma prepared 5 minutes after the glucose injection. […] Subsets of parasympathetic neurons that innervate the islets release vasoactive intestinal polypeptide (VIP) and pituitary adenylate cyclase activating peptide (PACAP) when activated. N-terminally truncated forms of PACAP [PACAP(6-38) or PACAP(6-27)] are competitive inhibitors of both VIP receptors (VPAC1 and VPAC2) as well as the PACAP-specific receptor Pac.

GIP/DT mice = assay: Plasma insulin 5 minutes after i.p. glucose with peptides, GIP/DT mice; type: in vivo, mouse
Protocol: as §3, §4, §5

NONcNZO10/Ltj mice [2] = assay: Blood glucose after i.p. glucose plus peptides in mouse model of human T2DM; type: in vivo; settings: glucose 1 g/kg i.p.
Protocol: Panel A depicts blood glucose levels in 5-week old pre-diabetic mice. Panel B depicts blood glucose levels in 16-week old diabetic mice. Panel C depicts the area under the curve for data in panels A and B as well as for a third experiment using 18-week old mice. * indicates P value<0.05 versus mice of the same age receiving BSA alone.
At the age indicated in FIG. 21, mice were fasted for 16-h. Blood glucose levels were measured before and at the indicated time after an intraperitoneal injection of glucose (1 g/kg) plus vehicle alone (BSA), GIP alone, Xenin-25 alone (Xen) or GIP plus Xenin-25 (GIP+Xen).

NONcNZO10/Ltj mice [3] = assay: Plasma insulin after i.p. glucose plus peptides in mouse model of human T2DM; type: in vivo; settings: 8-week old pre-diabetic mice (FIG. 22A); 15 minutes after i.p. glucose 1 g/kg
Protocol: Panel A depicts plasma insulin levels in 8-week old pre-diabetic mice.
NONcNZO10/Ltj mice were fasted for 16-h. Blood was collected before (0) or 15 minutes after an intraperitoneal injection of glucose (1 g/kg) in the presence of vehicle alone (BSA), GIP alone, Xenin-25 alone (Xen) or GIP plus Xenin-25 (GIP+Xen). […] (FIG. 22A).

perfused rat pancreas = settings: supraphysiologic concentrations; cited from earlier work

Molecule: glucose-dependent insulinotropic polypeptide [GIP]
- glucose-stimulated insulin release (primary mouse islets): insulin release is potentiated; also recorded: potentiate glucose-stimulated insulin release
- glucose-stimulated insulin release (MIN6 cells): glucose-stimulated insulin release was amplified; also recorded: potentiate glucose-stimulated insulin release
- insulin release, GIP with/without Xenin-25 (MIN6 cells; Min6 cells, peptides at indicated concentrations (FIG. 23C)): dose-dependent increase in insulin release
- phosphorylation of MAPK [1]: profound increases in phosphorylation of MAPK
- increase in plasma insulin levels (WT mice; WT mice, 5 minutes after i.p. glucose 1 g/kg): greater than 3 fold
- plasma insulin levels (GIP/DT mice; GIP/DT mice, 5 minutes after i.p. glucose 1 g/kg): much smaller increase in plasma insulin levels than was observed in WT mice
- blood glucose levels after i.p. glucose (NONcNZO10/Ltj mice [2]; 5-week old pre-diabetic mice): does not significantly improve blood glucose levels
- blood glucose levels after i.p. glucose (NONcNZO10/Ltj mice [2]; 16-week old diabetic mice): modest improvement in blood glucose levels
- plasma insulin levels (NONcNZO10/Ltj mice [3]): little effect on plasma insulin levels

Molecule: CN1[C@@H]2CC[C@H]1C[C@@H](OC(=O)C(CO)c1ccccc1)C2 (stereo partly drawn) [atropine]
- effect on insulin release with GIP plus Xenin-25 (WT mice; wild type mice, atropine i.p. 15 minutes before glucose): no statistically significant effect on insulin release

Molecule: PACAP(6-38): N-terminally truncated PACAP; competitive inhibitor of VIP receptors (VPAC1 and VPAC2) and PACAP-specific receptor (FTDSYSRYRKQMAVKKYLAAVLGKRYKQRVKNK; ends and bridges not checked; UniProt P18509 137-169, looked up, fragment)
- inhibition of Xenin-25 potentiation of GIP-mediated increase in plasma insulin (GIP/DT mice; given along with peptides (FIG. 25C), mouse line not stated): did not inhibit Xenin-25 potentiation of the GIP-mediated increase in plasma insulin levels

Molecule: Xenin: xenin protein, form (xenin-25 or fragment) not specified at the place (MLTKFETKSARVKGLSFHPKRPWIL; Xenin; UniProt P53621 1-25, looked up)
- glucose-stimulated insulin release (perfused rat pancreas): increased glucose-stimulated insulin release

Molecule: glucagon like peptide 1 (HAEGTFTSDVSSYLEGQAAKEFIAWLVKGR; ends and bridges not checked; UniProt P01275 98-127, looked up) [GLP-1, incretin hormone; synthetic GLP-1(7-36) used in vivo]
- glucose-stimulated insulin release (primary mouse islets): insulin release is potentiated; also recorded: potentiate glucose-stimulated insulin release
- glucose-stimulated insulin release (MIN6 cells): glucose-stimulated insulin release was amplified; also recorded: potentiate glucose-stimulated insulin release
- phosphorylation of MAPK [1]: profound increases in phosphorylation of MAPK
